We go through 17 molecules from ChEMBL document CHEMBL1127097, “Tetrazole amino acids as competitive NMDA antagonists” (Bioorg Med Chem Lett, 1993).

Test [1] deals with Glutamate [NMDA] receptor. The test can be described thus: Tested in vitro for the affinity against NMDA receptor in a cortical wedge assay; A- Compound acted as […]. It counts as functional.
In test [2] the target is Glutamate [NMDA] receptor. The test can be described thus: Tested in vitro for the affinity against NMDA receptor by examining its ability to inhibit [3H]-CGS-19,755 binding. Type of test: protein-complex assay.
In a further test the test system is Mus musculus. The test can be described thus: Minimum effective dose tested by ip administration for its ability to block NMDA induced lethality in mice. Particulars: read-out: MED. Type of test: functional.
Test [3] has as its target Glutamate [NMDA] receptor. The test can be described thus: Tested in vitro for the affinity against NMDA receptor in a cortical wedge assay. Type of test: protein-complex assay.
In test [4] the test system is Glutamate [NMDA] receptor. The test can be described thus: Tested in vitro for the affinity against NMDA receptor in a cortical wedge assay; A- compound acts as antagonist. Type of test: functional.

As to `N[C@@H](CCc1nnn[nH]1)C(=O)O`, the results for the IC50 result in test [1] and in test [2] were “Agonist” and 1600 nM, respectively. In the test on Mus musculus, the minimal effective dose was over 160 mg/kg.

On to `O=C(O)C1CN(CCCc2nnn[nH]2)CCN1` (centres undefined), for which the IC50 (as a rule, the concentration that inhibits the measured activity by half) was determined as 16300 nM in test [3] and 3150 nM in test [2]. Moreover, in the test with Mus musculus, the minimal effective dose amounted to 40 mg/kg.

On to `O=C(O)C1CN(Cc2nn[nH]n2)CCN1` (centres undefined), for which the figures for the IC50 in test [3] and in test [2] were 8200 nM and 1670 nM, respectively. Also, the minimal effective dose in the test on Mus musculus was over 80 mg/kg.

As to `O=C(O)C1CN(CCc2nnn[nH]2)CCN1` (centres undefined), the IC50 in test [3] stood at 4700 nM; in test [2] it was 781 nM. Moreover, the minimal effective dose in the test on Mus musculus was determined as 160 mg/kg.

As to `N[C@H](Cc1nnn[nH]1)C(=O)O`, the IC50 was over 100000 nM in test [3] and 685 nM in test [2]. The minimal effective dose in the test with Mus musculus is over 160 mg/kg.

For the molecule `N[C@H](CCc1nnn[nH]1)C(=O)O`, the figures for the IC50 in test [3] and in test [2] were 31600 nM and 925 nM, respectively. In addition, the minimal effective dose with Mus musculus is over 160 mg/kg.

`O=C(O)[C@H]1C[C@@H](Cc2nnn[nH]2)CCN1`: the IC50 in test [3] came to 4200 nM; in test [2], 107 nM. Moreover, the minimal effective dose in the test on Mus musculus is 5 mg/kg.

For `O=C(O)C1CN(CCCP(=O)(O)O)CCN1` (centres undefined), the results for the IC50 in test [3] and in test [2] were 600 nM and 220 nM, respectively. Moreover, the minimal effective dose in the test with Mus musculus was 2.5 mg/kg.

Regarding `N[C@H](CCCCCP(=O)(O)O)C(=O)O`, the IC50 in test [3] turned out to be 11100 nM; in test [2] it was 461 nM. Besides, the minimal effective dose in the test with Mus musculus amounted to 160 mg/kg.

As for `O=C(O)C1CN(CCCCc2nnn[nH]2)CCN1` (centres undefined), in test [2], the IC50 was over 10000 nM. In addition, the minimal effective dose in the test with Mus musculus is over 80 mg/kg.

For the molecule `N[C@@H](Cc1nnn[nH]1)C(=O)O`, the IC50 in test [3] is over 100000 nM; in test [2], 639 nM. Moreover, in the test on Mus musculus, the minimal effective dose is over 160 mg/kg.

For the molecule `NC(CCCCCc1nnn[nH]1)C(=O)O` (centres undefined), the IC50 in test [3] was over 100000 nM; in test [2], over 10000 nM. For the same molecule, the minimal effective dose in the test with Mus musculus was over 160 mg/kg.

For `Cl.NC(CCCc1nnn[nH]1)C(=O)O` (centres undefined), the IC50 in test [2] was 1050 nM; in test [4], “Antagonist”. The minimal effective dose in the test on Mus musculus is over 160 mg/kg.

As to `Cl.NC(CCCCc1nnn[nH]1)C(=O)O` (centres undefined), the figures for the IC50 in test [2] and in test [4] were 10000 nM and “Antagonist”, respectively. Moreover, the minimal effective dose with Mus musculus is over 160 mg/kg.

`Cl.NC(CCCCCCc1nnn[nH]1)C(=O)O` (centres undefined): the IC50 is over 100000 nM in test [3] and over 10000 nM in test [2]. Moreover, the minimal effective dose in the test with Mus musculus was over 160 mg/kg.

Consider `N[C@H](CCCP(=O)(O)O)C(=O)O`, for which the IC50 in test [3] came out at 3700 nM; in test [2], 177 nM. The minimal effective dose in the test with Mus musculus was determined as 160 mg/kg.

With `O=C(O)[C@@H]1C[C@H](CP(=O)(O)O)CCN1` (single isomer, unassigned) [SELFOTEL], the values for the IC50 in test [3] and in test [2] were 1600 nM and 54 nM, respectively.
